The results in this text go back to PMC10821286 (Marine Drugs, 2023).

Converted amounts (≈) assume the structure as drawn. Like-named read-outs stand apart in the source and are kept apart here. Where a SMILES comes first, the peptide text is derived from it. Bridges are numbered along the chain shown (N, C = ends). Some results are limits rather than exact numbers.

For data set [1], the system named is trypsin. Particulars: trypsin 250 U/mg, pH 8.0, ratio 10:1, 37 °C, 4 h; read-out MIC against S. epidermidis, triplicate. The protocol: (§1) Each experiment was performed in triplicate, and data were analyzed by the GraphPad Prism (version 8, USA, the software download from https://www.graphpad-prism.cn/, accessed on 7 June 2023).
For data set [2] the following is noted: 100 °C, one hour in PBS; read-out MIC against S. epidermidis. The protocol:
as §1

The test system of data set [3] is pepsin. As to conditions: pepsin 3000 U/mg, pH 2.0, ratio 10:1, 37 °C, 4 h; read-out MIC against S. epidermidis, triplicate. The protocol: as §1
For data set [4], the system named is S. hyicus NCTC 10350. Put plainly: microbe, parasite or virus in culture. Type of data set: cell-based. As to conditions: 1 × 10^5 CFU/mL, 37 °C, 12–18 h, triplicate. The protocol: (§2) Each experiment was performed in triplicate.
Data set [5] deals with S. aureus E48. In words: microbe, parasite or virus in culture. Type of data set: cell-based, Staphylococcus aureus. Particulars: microbroth dilution, 1 × 10^5 CFU/mL, 37 °C, 12–18 h, triplicate. The protocol:
as §2

Data set [6] relates to S. aureus ATCC 25923. In words: microbe, parasite or virus in culture. Type of data set: cell-based, Staphylococcus aureus. As to conditions: 1 × 10^5 CFU/mL, 37 °C, 12–18 h, triplicate. The protocol: as §2
Data set [7] concerns S. aureus ATCC 43300. Put plainly: microbe, parasite or virus in culture. Type of data set: cell-based, Staphylococcus aureus. As to conditions: 1 × 10^5 CFU/mL, 37 °C, 12–18 h, triplicate. The protocol:
as §2

Data set [8] relates to Hacat cells. Particulars: 24 h, cck-8.
Method: Cell survival rate is calculated as follows: Survival rate (%) = (A/Acontrol) × 100.
The test system of data set [9] is S. pseudintermedius A2101. In words: organism not typed. Type of data set: cell-based. As to conditions: microbroth dilution, 1 × 10^5 CFU/mL, 37 °C, 12–18 h, triplicate. The protocol: as §2
Background: Dilution methods test growth across graded concentrations, often in twofold steps.

Data set [10] has as its system S. epidermidis G-81. In words: microbe, parasite or virus in culture. Type of data set: cell-based, Staphylococcus epidermidis. Particulars: 1 × 10^5 CFU/mL, 37 °C, 12–18 h, triplicate. The protocol:
as §2

Data set [11] relates to S. epidermidis ATCC 12228. Put plainly: microbe, parasite or virus in culture. Type of data set: cell-based, Staphylococcus epidermidis. As to conditions: 1 × 10^5 CFU/mL, 37 °C, 12–18 h, triplicate. The protocol:
as §2

In data set [12] the test system is S. agalactiae ATCC 13813. Particulars: microbroth dilution, 1 × 10^5 CFU/mL, 37 °C, 12–18 h, triplicate. The protocol:
(§3) The strains to be tested were cultured overnight at 37 °C and then transferred to fresh medium until the logarithmic phase of growth was reached. […] The plate was then incubated at 37 °C for 12–18 h. The minimum concentration of no bacterial growth was recorded as the MIC value. Each experiment was performed in triplicate.

Data set [13] deals with S. epidermidis ATCC 35984. As to conditions: microbroth dilution, 1 × 10^5 CFU/mL, 37 °C, 12–18 h, triplicate. The protocol:
as §3

Data set [14] concerns S. epidermidis G-81. In words: Murine subcutaneous abscess model of S. epidermidis infection. Type of data set: in vivo, BALB/c mice. As to conditions: mice, day three post-infection. The protocol:
The sterile saline was used for rapid washing twice.
The six-week-old BALB/c mice were divided randomly into five groups of nine animals: a normal saline control group, an infection group, three drug treatment groups (including AOD treatment in two groups and lincomycin treatment in one group). The hair removal solution was applied to the abdomen of each mouse in every group. One day later, each group, except for the control group, was subcutaneously injected with 0.1 mL of S. epidermidis G-81 at a concentration of 1 × 10^10 CFU/mL. […] In contrast, the infected group received an injection of 10 μL normal saline. The treatment duration was three days, and we continuously observed the weight and volume changes in the abscesses for 15 days. […] […] The results were presented as means ± standard deviation (SD).

Data set [15] in a line: Ion stability. Type of data set: physicochemical. Particulars: Zn2+, Mg2+, Ca2+, NH4+, K+, Na+; 37 °C, 4 h (method); read-out MIC against S. epidermidis. From the text:
The results were presented as means ± standard deviation (SD).

Data set [16] concerns mouse red blood cells. Particulars: 128 μg/mL; mouse erythrocytes, 37 °C, 1 h.
Method: Erythrocytes from mice of SPF grade were centrifuged at 2000 rpm for 5 min, followed by washes with saline solution three times. […] The mixture was then incubated at 37 °C for 1 h. Subsequently, it was centrifuged at 5000 rpm for 5 min and the supernatant was collected for measurement of the absorbance at OD540 nm. The 0.9% NaCl and 0.1% Triton X-100 were used as blank (A0) and positive (A100) controls, respectively [32]. The percentage of peptide hemolysis is calculated as follows: Hemolysis (%) = [(A − A0)/(A100 − A0)] × 100. Each experiment was performed in triplicate, and data were analyzed by the GraphPad Prism (version 8, USA, the software download from https://www.graphpad-prism.cn/, accessed on 7 June 2023).
For data set [17], the system named is S. epidermidis G-81. In words: Time-killing curves. Type of data set: cell-based, Staphylococcus epidermidis. As to conditions: S. epidermidis G-81, lincomycin 1× and 2× MIC (positive control), 24 h. The protocol: Samples were collected at intervals of 0, 0.5, 1, 2, 4, 6, 8, 10, 12, and 24 h, respectively, and subjected to 10-fold serial dilutions followed by colony counting. PBS and Lincomycin were used as negative and positive controls. […] The results were presented as means ± standard deviation (SD).

Data set [18] has as its system E. coli ATCC 25922. In words: MIC, microbroth dilution. Particulars: Escherichia coli, ATCC25922, 1 × 10^5 CFU/mL, 37 °C, 12–18 h, triplicate. Type of data set: cell-based.

In the case of `CC[C@H](C)[C@@H]1NC(=O)[C@H](CO)NC(=O)[C@H](CCCNC(=N)N)NC(=O)[C@@H]2CSSC[C@@H](C(=O)N[C@@H](Cc3ccc(O)cc3)C(=O)N[C@@H](CCCNC(=N)N)C(=O)N[C@@H](CO)C(=O)O)NC(=O)[C@H]([C@@H](C)O)NC(=O)[C@@H]3CSSC[C@H](NC(=O)[C@H](CCC(N)=O)NC(=O)[C@H](Cc4ccc(O)cc4)NC(=O)[C@H](CCCNC(=N)N)NC(=O)[C@H](CC(N)=O)NC(=O)[C@H](Cc4c[nH]c5ccccc45)NC(=O)[C@@H]4CCCN4C(=O)[C@@H](NC(=O)CNC(=O)[C@H](Cc4ccccc4)NC(=O)CN)CSSC[C@H](NC(=O)[C@H](Cc4ccc(O)cc4)NC(=O)CNC(=O)CNC(=O)[C@H](CC(C)C)NC(=O)[C@H](CCCNC(=N)N)NC(=O)CNC1=O)C(=O)N[C@@H](C)C(=O)NCC(=O)N[C@@H](CO)C(=O)N[C@@H](CC(C)C)C(=O)N[C@@H](CCCNC(=N)N)C(=O)N[C@@H](CC(C)C)C(=O)N[C@@H]([C@@H](C)O)C(=O)N3)C(=O)N[C@@H](Cc1c[nH]cn1)C(=O)N[C@@H](CO)C(=O)N[C@@H](Cc1c[nH]cn1)C(=O)N2` [AOD] (H-GFGCPWNRYQCHSHCRSIGRLGGYCAGSLRLTCTCYRS-OH; disulfide 4-25, 11-33, 15-35), the “MIC values after treatment with trypsin” value in data set [1] is reported as “remained unchanged”. In [2], the “antibacterial activity remaining after heating” value is 20%. Besides, in [3], the “MIC values after treatment with pepsin” value is listed as “remained unchanged”. The MIC amounted to 16 µg/mL (≈ 3.75 µM) in [4] (microbroth dilution); 8 µg/mL (≈ 1.88 µM) in [5]; 16 µg/mL (≈ 3.75 µM) in data set [6] (microbroth dilution); 8 µg/mL (≈ 1.88 µM) in [7] (microbroth dilution); 8 µg/mL (≈ 1.88 µM) in [9]; 4 µg/mL (≈ 0.938 µM) in [10] (microbroth dilution). Moreover, the MIC in data set [11] (microbroth dilution), in [12] and in data set [13] was 4 µg/mL (≈ 0.938 µM) in each case. Further, the cell survival rate entry in [8] (128 μg/mL) is given as “over 83%”; in data set [8] (128 mg/mL (so in the source)), 98%. Also, the heart indices result in [14] is “elevated only in the AOD-treated group”. Further, the ion stability result in data set [15] is recorded as “remarkable stability”. Besides, the hemolysis rate result in data set [16] is reported as “less than 0.5%”.
Turning to `CCC[C@@H]1C[C@@H](C(=O)N[C@@H]([C@H]2O[C@H](SC)[C@H](O)[C@@H](O)[C@H]2O)[C@@H](C)O)N(C)C1` [Lincomycin, reference compound], the MIC was 32 µg/mL (≈ 78.7 µM) in data set [4] (Staphylococcus hyicus, NCTC10350, microbroth dilution, read-out: MIC); 1 µg/mL (≈ 2.46 µM) in [5] (Staphylococcus aureus, read-out: MIC); 1 µg/mL (≈ 2.46 µM) in data set [6] (Staphylococcus aureus, ATCC25923, microbroth dilution, read-out: MIC); > 64 µg/mL in [7] (Staphylococcus aureus, ATCC43300, microbroth dilution, read-out: MIC); 32 µg/mL (≈ 78.7 µM) in data set [9] (read-out: MIC); 4 µg/mL (≈ 9.84 µM) in [10] (Staphylococcus epidermidis, G81, microbroth dilution, read-out: MIC). Also, the MIC in data set [11] (Staphylococcus epidermidis, ATCC12228, microbroth dilution, read-out: MIC) is 4 µg/mL (≈ 9.84 µM); in [18], 2 µg/mL (≈ 4.92 µM). Also, the “course of bacterial counts” value in data set [17] is “gradual decrease”.
